{"source": "patent US10736873B2", "about": "“Medical uses of N-(2-aminoethyl)-N-(4-benzyloxy)-3-methoxybenzyl)thiophene-2-formamide hydrochloride” (The Second Xiangya Hospital, Central South University, priority 2017, dated 2020)", "key": {"[1]": {"system": "Scid-HepG2-subcutaneous tumor", "test": "Scid-HepG2 subcutaneous tumor model in NOD/SCID nude mice", "type": "in vivo", "settings": "for Relative volume of Scid-HepG2-subcutaneous tumor: 2 mg/kg i.p. 1 time/day", "method": "(§1) Using the hepatoma cell line HepG2, 5×10^6 cells were injected into the right flank of each NOD/SCID nude mouse (10 in total) respectively. When the tumor grows to a volume of about 80 mm^3, the mice were randomly divided into control group and therapeutic intervention group, with 5 mice in each group. Therapeutic Intervention Group: M8-B hydrochloride was dissolved in DMSO to form an injectable medication, intraperitoneally injected, at a dose of 2 mg/kg (wherein 2 mg was the mass of M8-B hydrochloride), 1 time/day. Control Group: The blank solvent DMSO was intraperitoneally injected, at a dose of 2 mg/kg, 1 time/day. Tumor size was measured by volume=½×length×width^2, and the mice were sacrificed at week 10 to compare survival rate and tumor volume. The experimental results of this example are as follows: Tumor size was measured by volume=½×length×width^2, and mice were sacrificed at week 10 to compare survival rate and tumor volume. The experimental results of this example are as follows: In Table 1, DMSO represents the relative volume of Scid-HepG2-subcutaneous tumor in the control group of blank solvent, M8-B represents the relative volume of Scid-HepG2-subcutaneous tumor in the therapeutic intervention group, and P value represents the difference between the relative volumes of Scid-HepG2-subcutaneous tumors in the control group and therapeutic intervention group. The tumor size on the first day of administration is 100%."}, "[2]": {"system": "Scid-Huh7-subcutaneous tumor", "test": "Scid-Huh7 subcutaneous tumor model in NOD/SCID nude mice", "type": "in vivo", "settings": "for Relative volume of Scid-Huh7-subcutaneous tumor: 2 mg/kg i.p. 1 time/day", "method": "as §1, with “Huh7,” for “HepG2,”, “6” for “10 to compare survival rate and tumor volume. The experimental results of this example are as follows: Tumor size was measured by volume=½×length×width^2, and mice were sacrificed at week 10”, “2,” for “1,”, “Scid-Huh7-subcutaneous” for “Scid-HepG2-subcutaneous”"}, "[3]": {"settings": "week 0, tumor size on first day of administration = 100%"}, "[4]": {"settings": "week 1, first day of administration = 100%"}, "[5]": {"settings": "week 2, first day of administration = 100%"}, "[6]": {"settings": "week 3, first day of administration = 100%"}, "[7]": {"settings": "week 4, first day of administration = 100%"}, "[8]": {"settings": "week 5, first day of administration = 100%"}, "[9]": {"settings": "week 6, first day of administration = 100%"}}}
{"compound": "COc1cc(CN(CCN)C(=O)c2cccs2)ccc1OCc1ccccc1.Cl", "note": "[M8B]", "values": [{"measurement": "changes of tumor volume in mice (HepG2 tumors)", "setting": "[1]; versus DMSO control, results of table 1", "value": "significantly slower"}, {"measurement": "Relative volume of Scid-HepG2-subcutaneous tumor", "setting": "[1]; [3]", "value": 100.00, "unit": "%"}, {"measurement": "Relative volume of Scid-HepG2-subcutaneous tumor", "setting": "[1]; [4]", "value": 151.94, "unit": "%"}, {"measurement": "Relative volume of Scid-HepG2-subcutaneous tumor", "setting": "[1]; [5]", "value": 212.44, "unit": "%"}, {"measurement": "Relative volume of Scid-HepG2-subcutaneous tumor", "setting": "[1]; [6]", "value": 273.9, "unit": "%"}, {"measurement": "Relative volume of Scid-HepG2-subcutaneous tumor", "setting": "[1]; [7]", "value": 349.0, "unit": "%"}, {"measurement": "Relative volume of Scid-HepG2-subcutaneous tumor", "setting": "[1]; [8]", "value": 416.66, "unit": "%"}, {"measurement": "Relative volume of Scid-HepG2-subcutaneous tumor", "setting": "[1]; [9]", "value": 479.2, "unit": "%"}, {"measurement": "Relative volume of Scid-HepG2-subcutaneous tumor", "setting": "[1]; week 7, first day of administration = 100%", "value": 590.68, "unit": "%"}, {"measurement": "Relative volume of Scid-HepG2-subcutaneous tumor", "setting": "[1]; week 8, first day of administration = 100%", "value": 1108.50, "unit": "%"}, {"measurement": "Relative volume of Scid-HepG2-subcutaneous tumor", "setting": "[1]; week 9, first day of administration = 100%", "value": 700.92, "unit": "%"}, {"measurement": "Relative volume of Scid-HepG2-subcutaneous tumor", "setting": "[1]; week 10, first day of administration = 100%", "value": 734.87, "unit": "%"}, {"measurement": "changes of tumor volume in mice (HuH7 tumors)", "setting": "[2]; versus DMSO control, results of table 2", "value": "significantly slower"}, {"measurement": "Relative volume of Scid-Huh7-subcutaneous tumor", "setting": "[2]; [3]", "value": 100.00, "unit": "%"}, {"measurement": "Relative volume of Scid-Huh7-subcutaneous tumor", "setting": "[2]; [4]", "value": 143.85, "unit": "%"}, {"measurement": "Relative volume of Scid-Huh7-subcutaneous tumor", "setting": "[2]; [5]", "value": 205.0, "unit": "%"}, {"measurement": "Relative volume of Scid-Huh7-subcutaneous tumor", "setting": "[2]; [6]", "value": 381.41, "unit": "%"}, {"measurement": "Relative volume of Scid-Huh7-subcutaneous tumor", "setting": "[2]; [7]", "value": 484.0, "unit": "%"}, {"measurement": "Relative volume of Scid-Huh7-subcutaneous tumor", "setting": "[2]; [8]", "value": 789.89, "unit": "%"}, {"measurement": "Relative volume of Scid-Huh7-subcutaneous tumor", "setting": "[2]; [9]", "value": 928.01, "unit": "%"}]}
